Experimental data from PMC6511062, “Preclinical candidate for the treatment of visceral leishmaniasis that acts through proteasome inhibition” (Proceedings of the National Academy of Sciences of the …, 2019).
“Also recorded” adds a separate entry of the source.

Experiments:
[1] = Pharmacokinetics in male CD-1 mice; format: in vivo, mouse
Protocol: (§1) 5. Intrinsic clearance (CLint) […]
6. Pharmacokinetic studies.
Mouse pharmacokinetic studies were conducted in male CD-1 mice and male beagle dogs. 3 animals per group were used for each study performed.
A dose of 3 mg/kg was administered intravenously, in a bolus form to mice and infused over a 30 min period to dogs. For all the intravenous studies compound were dissolved in 5% DMSO/20% kleptose in saline.
A dose of 10 mg/kg was orally administered by gavage to the two species in a suspension of 1% methylcellulose to investigate oral pharmacokinetics.
Peripheral blood samples were obtained at 5, 15, 30 min, 1, 2, 4, 6 ,8 and 24 h after intravenous administration and 15, 30, 45 min,1, 2, 4, 6, 8 and 24 h after oral administration. Blood was 1/2 diluted with milliQ water and immediately frozen on dry ice until analysis. Quantification was performed by means of LC-MS/MS (API4000), with a lower limit of quantification of 1 ng/mL.
Pharmacokinetic parameters, namely clearance (CL), volume of distribution at steady state (Vss) and bioavailability (F%), were estimated using Phoenix, WinNonLin […]
Data analysis and calculation of pharmacokinetic parameters was performed using Phoenix, WinNonLin Version 6.3.
Following the intravenous administration, the whole blood clearance was calculated

[2] = test system: ubiquitylated proteins in L. donovani axenic amastigotes; experiment: Western blot of ubiquitylated proteins in axenic amastigotes; format: cell-based, Leishmania donovani; conditions: dose-dependent
Protocol: k. Proteasome activity assays
Compounds were dispensed into black 384-well assay plates (Greiner) by acoustic dispensing (LabCyte ECHO). For potency determinations, eleven-point, one in three dilution curves were generated, with a top concentration of 100 µM. Three proteasome activities were measured using a commercially available indirect enzyme-based luminescent assay kit (Promega) with Suc-LLVY-aminoluciferin, Z-LRR-aminoluciferin and Z-nLPnLD-aminoluciferin used as substrates for chymotrypsin-like, trypsin-like and caspase-like activities, respectively. In addition to proteasome samples: L. donovani and THP1-enriched proteasomes, commercially available human purified 26S proteasome (Boston Biochem) was also assessed. Proteasome final assay concentration were 0.025 mg/ml for L. donovani and THP1-enriched proteasomes and 1 nM for human purified 26S proteasome. […]
Substrate solution was then added and after 30 min of incubation luminescent signal was measured in an Envision reader (PerkinElmer). […]
value) were used as negative and positive controls, respectively. […] Protein concentrations were determined by standard Bradford assays and Laemmli sample buffer was added to samples. […]
Figure S6. […] Ubiquitin proteins were detected using the human anti-ubiquitin P4D1 antibody diluted 1:1,000. […]

[3] = test system: L. donovani axenic amastigotes; experiment: L. donovani axenic amastigote drug sensitivity; format: cell-based; conditions: Leishmania donovani, concentration stated as 1X IC50, read-out: whole cell IC50
Protocol: T. cruzi4, Leishmania donovani axenic amastigote, cidal axenic amastigote and intra-macrophage drug sensitivity assays were conducted as previously described5,6.
The rate of kill of compound 8 was determined in axenic amastigotes using the previously described cidal axenic assay5, with one minor modification. Instead of a single readout at 72 h, multiple identical plates were used and read at different time points (24, 48, 72 h). Rate of kill curves showing the luminescence signal at each time point for each concentration were plotted.
as §1
XLfit (idbs, UK) was used to calculate the exponential decay and consequently the rate constant (k) from the ratio of peak area of test compound to internal standard at each time-point. The rate of intrinsic clearance (CLint) of each test compound was then calculated using the following calculation: […]
Compounds were dispensed into black 384-well assay plates (Greiner) by acoustic dispensing (LabCyte ECHO). […] Three proteasome activities were measured using a commercially available indirect enzyme-based luminescent assay kit (Promega) with Suc-LLVY-aminoluciferin, Z-LRR-aminoluciferin and Z-nLPnLD-aminoluciferin used as substrates for chymotrypsin-like, trypsin-like and caspase-like activities, respectively. […]

[4] = male, CD-1, whole blood, mouse, 3 mg/kg iv bolus

`O=C(Nc1ccc(F)c(-c2ccn3c(N4CCOCC4)cnc3n2)c1)N1CCCC1` [Compound 8] gave a clearance [1, 4] of 40.7 ± 13.6 mL/min/kg, a half-life [1, 4] of 39 ± 19.2 min and a Vd ([1]; male, CD-1, whole blood, mouse, 3 mg/kg iv bolus, read-out: Vss) of 2.2 L/kg. The blood clearance ([1]; mouse) was 41 mL/min per kilogram, the “Cl (%LBF)” value ([1]; mouse, 3 mg/kg iv) was 32% and the bioavailability ([1]; whole blood, CD-1 male mouse, 10 mg/kg po, read-out: F (oral bioavailability)) was 18%. For the same molecule, the “accumulation of ubiquitylated proteins” value [2] was “dose-dependent manner; also recorded: induces the accumulation of ubiquitylated proteins” and the IC50 [3] was 300 nM.
